The values that follow come from BindingDB's records for PubMed 20126400 (University of Oklahoma, 2010).

Common to all, as to test: Ray2010 Assay 74
In test [1] the target is T1, 5-hydroxytryptamine receptor 1A (Homo sapiens, UniProt P08908).
T1 sequence (P08908 whole entry): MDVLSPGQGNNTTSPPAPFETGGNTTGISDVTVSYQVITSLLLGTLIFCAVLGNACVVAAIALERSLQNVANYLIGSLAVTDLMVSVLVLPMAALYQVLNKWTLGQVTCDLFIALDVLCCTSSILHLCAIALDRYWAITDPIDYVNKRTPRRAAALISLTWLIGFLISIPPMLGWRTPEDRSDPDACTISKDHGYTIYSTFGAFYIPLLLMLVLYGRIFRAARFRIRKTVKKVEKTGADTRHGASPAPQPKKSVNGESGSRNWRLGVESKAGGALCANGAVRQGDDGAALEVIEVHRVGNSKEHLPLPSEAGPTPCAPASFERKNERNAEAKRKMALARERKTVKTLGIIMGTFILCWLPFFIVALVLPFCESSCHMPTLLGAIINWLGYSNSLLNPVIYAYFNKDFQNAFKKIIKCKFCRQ
The text has this: (§1) Table S2 shows raw Ki data for the current study combined with data collected from the literature for the ten additional compounds.

Test [2] has as its target 5-hydroxytryptamine receptor 1E (Homo sapiens, UniProt P28566).
Text: as §1

Test [3] concerns the target 5-hydroxytryptamine receptor 2A (Homo sapiens, UniProt P28223).
Text: as §1

The next test has as its target D(1A) dopamine receptor (Homo sapiens, UniProt P21728).
Text: as §1

The next test concerns the target T2, D(4) dopamine receptor (Homo sapiens, UniProt P21917).
T2 sequence (P21917 whole entry): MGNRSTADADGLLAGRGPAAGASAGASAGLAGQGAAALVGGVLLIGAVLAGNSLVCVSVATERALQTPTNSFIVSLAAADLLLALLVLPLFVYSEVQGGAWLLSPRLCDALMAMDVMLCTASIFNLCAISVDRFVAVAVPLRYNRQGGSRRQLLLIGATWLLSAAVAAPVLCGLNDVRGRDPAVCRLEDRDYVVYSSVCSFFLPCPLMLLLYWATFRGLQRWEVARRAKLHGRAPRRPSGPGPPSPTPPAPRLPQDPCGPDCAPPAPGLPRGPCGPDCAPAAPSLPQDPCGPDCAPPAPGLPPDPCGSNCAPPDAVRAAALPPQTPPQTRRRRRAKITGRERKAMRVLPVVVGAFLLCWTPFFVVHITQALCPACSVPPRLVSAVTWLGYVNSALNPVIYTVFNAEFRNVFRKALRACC
Text: as §1

Test [4] addresses T3, Gamma-aminobutyric acid receptor subunit alpha-1 (Homo sapiens, UniProt P14867).
T3 sequence (P14867 whole entry): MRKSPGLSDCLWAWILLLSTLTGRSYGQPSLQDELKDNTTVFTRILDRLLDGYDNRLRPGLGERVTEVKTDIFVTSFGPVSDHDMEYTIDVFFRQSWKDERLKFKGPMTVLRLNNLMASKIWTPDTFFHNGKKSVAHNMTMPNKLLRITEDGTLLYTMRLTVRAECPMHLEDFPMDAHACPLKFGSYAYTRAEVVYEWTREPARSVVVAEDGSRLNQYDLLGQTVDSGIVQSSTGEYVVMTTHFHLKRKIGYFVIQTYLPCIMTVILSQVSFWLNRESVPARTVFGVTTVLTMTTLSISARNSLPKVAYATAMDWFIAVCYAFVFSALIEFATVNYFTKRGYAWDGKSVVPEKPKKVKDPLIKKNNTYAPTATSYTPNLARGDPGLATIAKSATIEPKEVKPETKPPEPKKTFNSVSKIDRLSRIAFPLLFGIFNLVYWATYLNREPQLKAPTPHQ
Text: as §1

Test [5] concerns the target Kappa-type opioid receptor (Homo sapiens, UniProt P41145).
Text: as §1

In test [6] the target is T4, Muscarinic acetylcholine receptor M1 (Homo sapiens, UniProt P11229).
T4 sequence (P11229 whole entry): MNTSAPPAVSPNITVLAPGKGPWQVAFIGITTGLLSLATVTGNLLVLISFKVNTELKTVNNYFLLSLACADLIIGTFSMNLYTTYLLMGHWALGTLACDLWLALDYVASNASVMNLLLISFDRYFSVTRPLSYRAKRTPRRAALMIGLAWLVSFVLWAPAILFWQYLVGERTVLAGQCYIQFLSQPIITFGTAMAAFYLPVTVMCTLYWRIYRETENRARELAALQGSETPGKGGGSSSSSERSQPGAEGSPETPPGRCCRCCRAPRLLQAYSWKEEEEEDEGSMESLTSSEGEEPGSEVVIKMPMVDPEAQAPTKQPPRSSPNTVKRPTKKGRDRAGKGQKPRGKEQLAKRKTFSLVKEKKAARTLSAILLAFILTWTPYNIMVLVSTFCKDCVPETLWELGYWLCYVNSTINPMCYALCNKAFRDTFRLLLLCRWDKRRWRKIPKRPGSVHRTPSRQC
Text: as §1

For test [7], the target named is T5, Muscarinic acetylcholine receptor M2 (Homo sapiens, UniProt P08172).
T5 sequence (P08172 whole entry): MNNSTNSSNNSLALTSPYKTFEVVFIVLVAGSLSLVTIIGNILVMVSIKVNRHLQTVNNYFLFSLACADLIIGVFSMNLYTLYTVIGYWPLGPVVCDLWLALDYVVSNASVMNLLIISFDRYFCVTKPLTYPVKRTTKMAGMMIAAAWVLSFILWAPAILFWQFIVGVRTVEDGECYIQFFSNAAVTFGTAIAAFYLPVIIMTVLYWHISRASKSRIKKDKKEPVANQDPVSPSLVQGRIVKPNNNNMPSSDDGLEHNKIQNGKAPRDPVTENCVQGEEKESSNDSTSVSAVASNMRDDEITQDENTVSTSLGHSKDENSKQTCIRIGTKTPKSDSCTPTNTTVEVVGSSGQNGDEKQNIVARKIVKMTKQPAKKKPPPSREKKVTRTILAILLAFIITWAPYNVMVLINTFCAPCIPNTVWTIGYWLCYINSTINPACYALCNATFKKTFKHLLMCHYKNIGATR
Text: as §1

Test [8] addresses Sodium-dependent noradrenaline transporter (Homo sapiens, UniProt P23975).
Text: as §1

Test [9] addresses Sodium-dependent serotonin transporter (Homo sapiens, UniProt P31645).
Text: as §1

Sodium-dependent noradrenaline transporter, sequence (P23975 whole entry): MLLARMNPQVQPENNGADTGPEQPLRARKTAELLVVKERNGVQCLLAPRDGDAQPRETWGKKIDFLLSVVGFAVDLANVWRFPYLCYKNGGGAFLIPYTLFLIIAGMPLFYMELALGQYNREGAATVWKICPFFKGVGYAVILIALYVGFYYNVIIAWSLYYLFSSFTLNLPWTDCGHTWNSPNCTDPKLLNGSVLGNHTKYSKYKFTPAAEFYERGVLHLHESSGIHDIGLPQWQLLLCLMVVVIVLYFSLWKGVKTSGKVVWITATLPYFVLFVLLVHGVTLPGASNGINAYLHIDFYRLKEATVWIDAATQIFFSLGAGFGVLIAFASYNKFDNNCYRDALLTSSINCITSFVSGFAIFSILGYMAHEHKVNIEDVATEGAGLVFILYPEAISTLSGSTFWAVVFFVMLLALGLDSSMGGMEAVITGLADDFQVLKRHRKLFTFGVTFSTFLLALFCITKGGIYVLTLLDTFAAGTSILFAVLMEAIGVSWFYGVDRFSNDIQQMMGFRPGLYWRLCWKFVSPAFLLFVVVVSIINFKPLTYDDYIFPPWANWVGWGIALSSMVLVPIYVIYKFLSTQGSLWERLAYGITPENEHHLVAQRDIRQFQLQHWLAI
5-hydroxytryptamine receptor 2A, sequence (P28223 whole entry): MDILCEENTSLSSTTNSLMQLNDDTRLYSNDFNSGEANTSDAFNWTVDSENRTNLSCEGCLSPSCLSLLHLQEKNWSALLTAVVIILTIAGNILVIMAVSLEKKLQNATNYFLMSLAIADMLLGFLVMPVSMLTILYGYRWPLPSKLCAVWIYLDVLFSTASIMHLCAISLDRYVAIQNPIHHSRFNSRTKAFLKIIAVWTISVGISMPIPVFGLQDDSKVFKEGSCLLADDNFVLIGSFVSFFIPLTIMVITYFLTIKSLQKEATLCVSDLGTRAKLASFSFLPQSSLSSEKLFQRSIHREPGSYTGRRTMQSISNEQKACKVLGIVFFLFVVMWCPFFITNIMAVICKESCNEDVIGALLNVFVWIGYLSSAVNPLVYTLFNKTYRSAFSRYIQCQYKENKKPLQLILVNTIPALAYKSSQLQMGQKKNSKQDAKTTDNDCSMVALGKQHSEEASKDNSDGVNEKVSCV
Kappa-type opioid receptor, sequence (P41145 whole entry): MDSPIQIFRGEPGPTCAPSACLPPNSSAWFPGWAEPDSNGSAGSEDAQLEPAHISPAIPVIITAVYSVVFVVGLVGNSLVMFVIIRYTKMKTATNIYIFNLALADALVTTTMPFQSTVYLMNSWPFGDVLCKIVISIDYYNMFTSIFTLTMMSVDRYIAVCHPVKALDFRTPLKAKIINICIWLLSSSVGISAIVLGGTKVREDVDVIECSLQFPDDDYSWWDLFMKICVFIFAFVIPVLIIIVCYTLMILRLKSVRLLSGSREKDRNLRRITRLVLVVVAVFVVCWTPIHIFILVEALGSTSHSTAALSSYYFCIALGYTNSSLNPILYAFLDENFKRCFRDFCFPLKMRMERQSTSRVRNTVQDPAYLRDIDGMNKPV
5-hydroxytryptamine receptor 1E, sequence (P28566 whole entry): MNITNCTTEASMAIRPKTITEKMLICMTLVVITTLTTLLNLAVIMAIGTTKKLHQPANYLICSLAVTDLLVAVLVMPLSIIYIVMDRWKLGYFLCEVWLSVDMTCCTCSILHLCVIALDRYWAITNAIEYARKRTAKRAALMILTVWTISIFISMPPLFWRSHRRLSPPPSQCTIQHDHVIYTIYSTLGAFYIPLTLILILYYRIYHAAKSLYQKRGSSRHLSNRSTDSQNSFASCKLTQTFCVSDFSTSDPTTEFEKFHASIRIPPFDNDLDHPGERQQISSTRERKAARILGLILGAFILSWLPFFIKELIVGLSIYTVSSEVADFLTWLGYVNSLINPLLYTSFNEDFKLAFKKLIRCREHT
Sodium-dependent serotonin transporter, sequence (P31645 whole entry): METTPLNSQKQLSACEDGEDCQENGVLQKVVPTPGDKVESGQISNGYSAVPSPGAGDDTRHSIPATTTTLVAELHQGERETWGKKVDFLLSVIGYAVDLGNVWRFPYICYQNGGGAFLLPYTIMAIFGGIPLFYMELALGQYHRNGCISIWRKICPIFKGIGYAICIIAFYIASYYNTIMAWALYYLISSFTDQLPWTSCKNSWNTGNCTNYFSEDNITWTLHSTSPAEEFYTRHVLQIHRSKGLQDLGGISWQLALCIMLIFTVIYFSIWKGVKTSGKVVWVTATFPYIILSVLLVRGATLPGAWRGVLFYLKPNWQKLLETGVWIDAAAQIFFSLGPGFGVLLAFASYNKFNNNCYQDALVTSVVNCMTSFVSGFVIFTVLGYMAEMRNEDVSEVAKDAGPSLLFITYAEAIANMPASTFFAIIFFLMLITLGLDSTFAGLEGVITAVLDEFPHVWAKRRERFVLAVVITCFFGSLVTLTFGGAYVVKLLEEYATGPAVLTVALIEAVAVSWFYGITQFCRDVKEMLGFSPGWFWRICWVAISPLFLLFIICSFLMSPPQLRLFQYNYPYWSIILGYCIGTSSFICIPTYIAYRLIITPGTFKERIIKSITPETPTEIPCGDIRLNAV
D(1A) dopamine receptor, sequence (P21728 whole entry): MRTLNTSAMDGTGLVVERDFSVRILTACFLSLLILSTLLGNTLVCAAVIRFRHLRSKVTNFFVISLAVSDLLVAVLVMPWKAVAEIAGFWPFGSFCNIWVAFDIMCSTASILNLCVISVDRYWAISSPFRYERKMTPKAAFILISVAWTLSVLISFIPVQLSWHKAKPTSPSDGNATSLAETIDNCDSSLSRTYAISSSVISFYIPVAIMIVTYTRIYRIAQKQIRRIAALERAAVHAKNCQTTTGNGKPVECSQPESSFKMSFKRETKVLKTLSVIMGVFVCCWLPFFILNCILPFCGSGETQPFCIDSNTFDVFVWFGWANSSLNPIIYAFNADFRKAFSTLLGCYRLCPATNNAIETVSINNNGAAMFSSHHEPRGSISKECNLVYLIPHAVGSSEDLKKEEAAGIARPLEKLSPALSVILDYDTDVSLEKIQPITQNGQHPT

Regarding `COc1ccc2[nH]cc(CCN(C)C(C)C)c2c1` [5-meo-mipt], the Ki is 0.0123 µM in test [1]; 3.5 µM in test [2]; 0.448 µM in [3]; greater than 10 µM at D(1A) dopamine receptor; 6.33 µM at D(4) dopamine receptor; greater than 10 µM in [4]. Besides, the Ki in [5] is greater than 10 µM; in test [6] it was greater than 10 µM; in test [7], greater than 10 µM; in [8] it was greater than 10 µM; in test [9], 6.41 µM.
Regarding `CCCN(CCC)CCc1c[nH]c2ccccc12` [dpt], the Ki is 0.0318 µM in test [1]; 2.34 µM in test [2]; 2.58 µM in test [3]; greater than 10 µM on D(1A) dopamine receptor; 2.01 µM on D(4) dopamine receptor; greater than 10 µM in test [4]. Also, the Ki in [5] is greater than 10 µM; in test [6], greater than 10 µM; in [7], greater than 10 µM; in test [8], greater than 10 µM; in [9] it was 0.157 µM.
As for `CC(C)N(CCc1c[nH]c2ccccc12)C(C)C` [dipt], the inhibition constant Ki in test [1] was 0.12 µM; in [2], greater than 10 µM; in test [3], greater than 10 µM; on D(1A) dopamine receptor, greater than 10 µM; on D(4) dopamine receptor, greater than 10 µM; in [4] it was greater than 10 µM. For the same molecule, the Ki in [5] is greater than 10 µM; in [6], greater than 10 µM; in test [7], greater than 10 µM; in [8], greater than 10 µM; in [9], 1.26 µM.
`COc1cc(CCN)cc(OC)c1OC` [3,4,5-trimethoxyphenylethylamine]: the Ki in test [1] was 1.84 µM; in [2], 5.2 µM; in test [3] it was greater than 10 µM; on D(1A) dopamine receptor, greater than 10 µM; at D(4) dopamine receptor it was greater than 10 µM; in test [4] it was greater than 10 µM. Also, the inhibitory constant (Ki) in test [5], in test [6], in test [7], in test [8] and in [9] was greater than 10 µM in each case.
